From article PMC12040169 (PLOS Biology, 2025) come the findings set out here.

By viability is commonly meant a read-out of living cells in per cent, often relative to untreated cells.

This data set in a line: in vitro. To be noted: human, hela cells, % viability.
As for `CC(=O)NCCCCCC(=O)Nc1ccc(C(=O)O)cc1` [CBK287241], the viability at 28.5 h, 10 µM was determined as 101%.
Regarding `O=C(O)c1ccc(CNCC(O)c2ccccc2)cc1` (centres unmarked) [CBK287243], the viability at 28.5 h, 10 µM was found to be 109%.
On to `O=C(O)Cn1nc(-c2ccccc2)c2ccccc2c1=O` [CBK287249], for which the viability at 28.5 h, 10 µM is 88%.
In the case of `CN(C)CCNCc1ccc(-c2cccc(C(=O)O)c2)o1` [CBK287250] it was 89.9%; in that of `CCCN1C(C)=NS(=O)(=O)c2cc(C(=O)O)ccc21` [CBK287251], 92.4%; in that of `COc1ccc(/C=C/C(=O)O)cc1S(=O)(=O)NCc1ccccc1` [CBK287252], 87.9%.
In the case of `CCOc1ccccc1C1C=C(C(=O)O)Nc2c(C(=O)Nc3ccccc3)cnn21` (centres unmarked) [CBK287253] it was 93.7%; in that of `Cc1ccc2nc(C(=O)O)cc(OCC(=O)Nc3ccccc3F)c2c1` [CBK287255], 88.8%.
As for `Cc1ccc2ncnc(NCCCCCC(=O)O)c2c1` [CBK287256], the figure is 91.4%; as for `O=C(O)CNCc1ccc(-c2ccc(Cl)cc2)o1` [CBK287258], 102%.
As for `COc1ccc(CN2C(=O)CC(C(=O)O)S/C2=N\c2ccc(Cl)cc2)cc1` (centres unmarked) [CBK287259], the viability at 28.5 h, 10 µM stood at 106%.
On to `Cc1ccc(-c2noc(-c3cccnc3N3CCC(C(=O)O)CC3)n2)cc1` [CBK287260], for which the viability at 28.5 h, 10 µM is 90.3%.
For `O=C(O)CCN1CCN(c2ccc(F)cc2)CC1` [CBK287262], the viability at 28.5 h, 10 µM was found to be 79.6%.
In the case of `O=C(O)CSC1=CC(=O)N(c2ccc(Br)cc2)C1=O` [CBK287263], the viability at 28.5 h, 10 µM was 81.5%.
Regarding `COc1ncccc1C(=O)NCC(CC(=O)O)c1ccc(Cl)cc1` (centres unmarked) [CBK287264], the viability at 28.5 h, 10 µM came to 92.1%.
For the molecule `O=C(O)c1ccc(CNCCc2c[nH]c3ccccc23)cc1` [CBK287265], the viability at 28.5 h, 10 µM is 87.6%.
In the case of `CCN1C(=O)CC(C(=O)O)S/C1=N\c1ccc(OC)cc1` (centres unmarked) [CBK287266] it was 105%; in that of `O=C(O)C1(NCc2ccc(F)cc2)CCCCC1` [CBK287270], 87.1%; in that of `Cc1cc(C)nc(N2CCN(CCC(=O)O)CC2)n1` [CBK287272], 97%.
As for `Cc1onc(-c2ccccc2)c1C(=O)n1cccn1` [CBK287274], the figure is 97.5%.
For `CNS(=O)(=O)c1ccc2c3c(cccc13)C(=O)N2` [CBK287275], the viability at 28.5 h, 10 µM turned out to be 89.7%.
For the molecule `Fc1cnc(Nc2ccccc2)nc1N1CCOCC1` [CBK287279], the viability at 28.5 h, 10 µM stood at 76.5%.
On to `Cc1nn(-c2ccccn2)c2c1-c1oncc1CC2` [CBK287280], for which the viability at 28.5 h, 10 µM was 90.7%.
Consider `COc1ccc(C2CC(c3ccccc3O)=NN2)cc1` (centres unmarked) [CBK287281], for which the viability at 28.5 h, 10 µM worked out at 77.8%.
Turning to `O=C(Nc1ccc(F)cc1)C1CC(=O)n2c(nc3ccccc32)N1` (centres unmarked) [CBK287282], the viability at 28.5 h, 10 µM worked out at 101%.
In the case of `c1nc2nc[nH]c(N3CCN(Cc4ccc5c(c4)OCO5)CC3)c-2n1` [CBK287283] it was 83.5%; in that of `Cc1ccc(NC(=O)c2cnc3ccc(C)cn3c2=O)cc1` [CBK287285], 90.2%; in that of `Cc1ccc2ncc(C(=O)Nc3ccc(F)cc3F)c(=O)n2c1` [CBK287286], 95.6%.
With `CCOc1ccc(C(=O)Nc2nonc2CC)cc1` [CBK287287], the viability at 28.5 h, 10 µM came out at 94.3%.
Regarding `Fc1ccc(OCc2nn3cnnc3s2)cc1` [CBK287288], the viability at 28.5 h, 10 µM is 102%.
`CC(C)(C)c1nnc2sc(-c3cccnc3)nn12` [CBK287289]: the viability at 28.5 h, 10 µM came out at 112%.
In the case of `Cc1csc2ncc(C(=O)NCc3ccc4c(c3)OCO4)c(=O)n12` [CBK287292] it was 109%; in that of `CCOc1ccc2nc(NC(=O)CC)sc2c1` [CBK287295], 107%.
Consider `COc1ccc(-c2cn3cccnc3n2)cc1NC(=O)c1ccccc1` [CBK287296], for which the viability at 28.5 h, 10 µM is 73.8%.
In the case of `O=C(CSc1ccc(-c2ccncc2)nn1)Nc1ccc(F)cc1` [CBK287297], the viability at 28.5 h, 10 µM came to 91%.
Regarding `CC1CCc2nc(NC(=O)c3ccccc3)sc2C1` (centres unmarked) [CBK287298], the viability at 28.5 h, 10 µM came out at 97.2%.
For the molecule `COc1ccc(C(=O)Nc2nc3c(C)cccc3s2)c(OC)c1` [CBK287301], the viability at 28.5 h, 10 µM is 82.6%.
In the case of `Cc1ccc(C(=O)Nc2nc3ccc4nc(C)sc4c3s2)cc1` [CBK287305] it was 91.8%; in that of `COc1ccc(C(=O)Nc2nc3ccc(OC)cc3s2)cc1` [CBK287306], 96.5%; in that of `CCOc1cccc2sc(NC(=O)CC)nc12` [CBK287307], 86.5%.
Turning to `Cc1cc(C)c2nc(NC(=O)c3ccccc3)sc2c1` [CBK287308], the viability at 28.5 h, 10 µM worked out at 97.9%.
As for `CC(=O)c1ccc(C(=O)Nc2ccc3nc(C)sc3c2)cc1` [CBK287310], the figure is 95.5%; as for `COc1ccc(C(=O)Nc2nc3ccc(NC(C)=O)cc3s2)cc1OC` [CBK287311], 101%.
As for `CC(=O)Nc1nc(-c2cc3ccccc3oc2=O)cs1` [CBK287312], the figure is 106%.
In the case of `Cc1ccn2cc(-c3cc4c(ccc5ccccc54)oc3=O)nc2c1` [CBK287313] it was 100%.
For `CC(=O)c1sc(NC(=O)c2ccccc2Oc2ccccc2)nc1C` [CBK287314], the viability at 28.5 h, 10 µM is 90.9%.
In the case of `CC(=O)Nc1nc(-c2ccc(Cl)s2)cs1` [CBK287317] it was 89.5%; in that of `CC1(C)CC(=O)c2sc(NC(=O)c3ccccc3)nc2C1` [CBK287318], 85.6%; in that of `O=C(Cc1ccccc1)Nc1ncc(Cc2ccccc2)s1` [CBK287322], 95.6%.
`O=C(CSc1nnc2ccccn12)Nc1ccccc1` [CBK287328]: the viability at 28.5 h, 10 µM worked out at 109%.
In the case of `CC(=O)Nc1nnc(-c2ccc(Cl)cc2)s1` [CBK287331] it was 94.4%; in that of `CC(=O)c1sc(NC(=O)c2ccc(N3C(=O)CCC3=O)cc2)nc1C` [CBK287334], 86.5%.
Regarding `CC(=O)Nc1nc2ccc(S(C)(=O)=O)cc2s1` [CBK287336], the viability at 28.5 h, 10 µM amounted to 110%.
In the case of `CS(=O)(=O)c1ccc2nc(NC(=O)c3cccs3)sc2c1` [CBK287340] it was 92.6%.
As for `O=C(CN1C(=O)c2ccccc2C1=O)Nc1nc(-c2ccccc2)cs1` [CBK287343], the figure is 106%; as for `O=C(CN1C(=O)CCC1=O)Nc1nc2ccccc2s1` [CBK287345], 97.7%; as for `C=CCNC(=O)CSc1nc2sc(C)c(C)c2c(=O)[nH]1` [CBK287350], 88.2%.
In the case of `COc1ccc2nc(NC(=O)c3cccc(N4C(=O)CCC4=O)c3)sc2c1` [CBK287351] it was 108%; in that of `COc1ccc(C2C(C(=O)Nc3ccccc3)=C(C)Nc3ncnn32)cc1` (centres unmarked) [CBK287353], 103%.
On to `Clc1ccc(-n2ncc3c(NCc4ccccc4)ncnc32)cc1` [CBK287355], for which the viability at 28.5 h, 10 µM worked out at 95.1%.
As for `Cc1nnc(NC(=O)c2ccc3c(c2)OCO3)s1` [CBK287358], the figure is 104%.
As to `COc1ccc(CC(=O)Nc2nnc(C)s2)cc1OC` [CBK287359], the viability at 28.5 h, 10 µM worked out at 113%.
In the case of `Cc1nnc(NC(=O)Cc2ccc(F)cc2)s1` [CBK287360] it was 103%; in that of `COc1ccc2nc(NC(=O)c3ccc4ncsc4c3)sc2c1` [CBK287364], 94.8%; in that of `COc1cccc2sc(NC(=O)c3ccc4ncsc4c3)nc12` [CBK287365], 98.5%.
Consider `Cc1ccc2nc(NC(=O)C3COc4ccccc4O3)sc2c1` (centres unmarked) [CBK287366], for which the viability at 28.5 h, 10 µM was found to be 103%.
Consider `COc1ccc(NC(=O)c2ccc3ncsc3c2)cc1` [CBK287368], for which the viability at 28.5 h, 10 µM was determined as 107%.
As for `O=C(NCc1ccccc1)c1cnc2n(c1=O)CCS2` [CBK287371], the figure is 79.7%; as for `CC(NC(=O)c1cnc2n(c1=O)CCS2)c1ccccc1` (centres unmarked) [CBK287372], 103%; as for `O=C(NCCC1=CCCCC1)c1cnc2n(c1=O)CCS2` [CBK287373], 89.8%.
As for `Cc1cccc(NC(=O)c2cnc3n(c2=O)CCS3)c1` [CBK287375], the figure is 108%.
As for `O=C(Nc1ccc(Oc2ccccc2)cc1)c1cnc2n(c1=O)CCS2` [CBK287377], the figure is 95.1%; as for `O=C(Nc1ccc(OCc2ccccc2)cc1)c1cnc2n(c1=O)CCS2` [CBK287378], 91.3%; as for `O=C(Nc1cccc(Cl)c1Cl)c1cnc2n(c1=O)CCS2` [CBK287380], 95.1%.
On to `O=C(Nc1ccc(F)cc1Cl)c1cnc2n(c1=O)CCS2` [CBK287382], for which the viability at 28.5 h, 10 µM worked out at 104%.
As for `COc1ccc(C)cc1NC(=O)c1cnc2n(c1=O)CCS2` [CBK287383], the figure is 108%; as for `COc1ccc(Cc2nnc(Nc3ccc(OC)cc3)[nH]c2=O)cc1` [CBK287385], 92.9%.
`Brc1ccc(Nc2ncnc3nc[nH]c23)cc1` [CBK287386]: the viability at 28.5 h, 10 µM came out at 105%.
As for `COc1ccc(NC(=O)CSc2ncnc3c2oc2ccccc23)c(OC)c1` [CBK287395], the figure is 87%.
As for `O=C(CSc1ncnc2c1oc1ccccc12)NC1CCCCC1` [CBK287396], the viability at 28.5 h, 10 µM turned out to be 95.4%.
Turning to `O=C(CSc1ncnc2c1oc1ccccc12)NCc1ccccc1` [CBK287397], the viability at 28.5 h, 10 µM amounted to 101%.
In the case of `COc1ccc(C)c2sc(NC(=O)c3sc(C)nc3C)nc12` [CBK287401], the viability at 28.5 h, 10 µM worked out at 74%.
In the case of `O=C(Nc1nnc(-c2ccc3c(c2)OCCO3)o1)c1cccc(F)c1` [CBK287402], the viability at 28.5 h, 10 µM is 101%.
As for `O=C(Nc1nnc(-c2ccc3c(c2)OCCO3)o1)c1ccccc1F` [CBK287405], the figure is 112%; as for `Cc1cccc(C(=O)Nc2nnc(C3=COCCO3)o2)c1` [CBK287406], 94%.
In the case of `O=C(Nc1nnc(C2=COCCO2)o1)c1cccc(F)c1` [CBK287408] it was 85.3%.
